Series [1] in a line: In vivo clearance of intravitreally injected ICG from the vitreous (fundus imaging). The arrangement: species or system rabbit. The text has this:
(§1) A total of 24 New Zealand White rabbits (age 3-6 months; weight 2.45-3.15 kg; both genders) were used. The rabbits were randomly divided into 7 groups: a control group A treated with laser only (n=3), group B received an intravitreal (IVIT) injection of ICG (n=9), group C received an IVIT injection of ICG labeled collagen fibers (n=3), group D was IVIT injected with collagen fibers followed by an IVIT injection of ICG (n=3), group E was IVIT injected with HA-AuNPs labeled floaters (n=3), and group F was IVIT injected with floaters followed by an IVIT injection of HA-AuNPs (n=3). During the in vivo experiments, animal conditions such as mucous membrane color, heart rate, body heat, and respiratory rate were monitored every 15 minutes. The animals were anesthetized by intramuscular injection of ketamine (40 mg/kg) and xylazine (5 mg/kg). A drop of tropicamide (1%) and phenylephrine hydrochloride (2.5%) was applied into the rabbit eyes to dilate their pupils at 15 min before the imaging procedures. For topical anaesthesia, a drop of topical tetracaine (0.5%) was used. To avoid corneal dehydration during the experiment, a lubricant solution (Systane, Alcon Inc., TX, USA) was added into the eye every minute using a syringe with plastic needle. To maintain the anaesthesia, a dose of ketamine (13 mg/kg) was injected every 45 min. The animal's body heat was maintained using a circulation heat blanket.
First, to visualize the retina of the rabbit eyes, a plastic contact lens was placed on the cornea. When the target location in the vitreous was selected under the microscope, the rabbits under anaesthesia were subsequently intravitreally injected. The intravitreal injections were performed using a 27 gauge needle. In one series of experiments 40 μL of ICG-fibers (which are collagen fibers treated with ICG) was injected; the concentration of collagen in the dispersions was 0.02 mg/mL. In another series of experiments, 40 μL of collagen fibers (0.02 mg/mL) were intravitreally injected. 5 days after the injection of the fibers, ICG (0.25-1.25 mg/ml) was injected in the vitreous (40 μl). The position of the fibers was monitored by OCT so that the intravitreal injection of ICG could be performed close the area where the fibers were located. Three days after the injection of ICG, laser treatment was performed.
The rabbits were monitored one minute after intravitreal injection of the collagen fibers and at day 4 post intravitreal injection of ICG. Rabbits intravitreally injected with ICG only were followed up for 14 days post injection. The rabbit eyes were assessed by color fundus photography, fluorescence imaging, optical coherence tomography (OCT) and photoacoustic microscopy (PAM), as discussed below. The rabbit's head and body were positioned in two different platforms to minimize breathing and other motion artifacts. The same scanning areas for PAM- and OCT-imaging were monitored by the fundus camera which was integrated in the OCT system. To detect the photoacoustic signal, the ultrasound transducer was placed in contact with the conjunctiva, allowing it to move freely in 3D while not applying any physical pressure on the rabbit eyes. […]
Color fundus photography was performed using a 50-degree color fundus photography system (Topcon 50EX, Topcon Corporation, Tokyo, Japan). […] Fluorescence imaging was done with the Topcon 50EX system using appropriate excitation and emission filters.

The next series concerns human vitreous opacities. Briefly: Photo-ablation of human vitreous opacities obtained after vitrectomy. As to conditions: 0.5 mg/ml.
In another series the target is T1, type I collagen fibers (Rattus norvegicus, UniProt P02454+P02466).
T1 construct: type I collagen from the rat tail; purchased GIBCO; host or cells: rat tail (tissue-derived)
T1 sequence (P02454 152-1207 limits assumed): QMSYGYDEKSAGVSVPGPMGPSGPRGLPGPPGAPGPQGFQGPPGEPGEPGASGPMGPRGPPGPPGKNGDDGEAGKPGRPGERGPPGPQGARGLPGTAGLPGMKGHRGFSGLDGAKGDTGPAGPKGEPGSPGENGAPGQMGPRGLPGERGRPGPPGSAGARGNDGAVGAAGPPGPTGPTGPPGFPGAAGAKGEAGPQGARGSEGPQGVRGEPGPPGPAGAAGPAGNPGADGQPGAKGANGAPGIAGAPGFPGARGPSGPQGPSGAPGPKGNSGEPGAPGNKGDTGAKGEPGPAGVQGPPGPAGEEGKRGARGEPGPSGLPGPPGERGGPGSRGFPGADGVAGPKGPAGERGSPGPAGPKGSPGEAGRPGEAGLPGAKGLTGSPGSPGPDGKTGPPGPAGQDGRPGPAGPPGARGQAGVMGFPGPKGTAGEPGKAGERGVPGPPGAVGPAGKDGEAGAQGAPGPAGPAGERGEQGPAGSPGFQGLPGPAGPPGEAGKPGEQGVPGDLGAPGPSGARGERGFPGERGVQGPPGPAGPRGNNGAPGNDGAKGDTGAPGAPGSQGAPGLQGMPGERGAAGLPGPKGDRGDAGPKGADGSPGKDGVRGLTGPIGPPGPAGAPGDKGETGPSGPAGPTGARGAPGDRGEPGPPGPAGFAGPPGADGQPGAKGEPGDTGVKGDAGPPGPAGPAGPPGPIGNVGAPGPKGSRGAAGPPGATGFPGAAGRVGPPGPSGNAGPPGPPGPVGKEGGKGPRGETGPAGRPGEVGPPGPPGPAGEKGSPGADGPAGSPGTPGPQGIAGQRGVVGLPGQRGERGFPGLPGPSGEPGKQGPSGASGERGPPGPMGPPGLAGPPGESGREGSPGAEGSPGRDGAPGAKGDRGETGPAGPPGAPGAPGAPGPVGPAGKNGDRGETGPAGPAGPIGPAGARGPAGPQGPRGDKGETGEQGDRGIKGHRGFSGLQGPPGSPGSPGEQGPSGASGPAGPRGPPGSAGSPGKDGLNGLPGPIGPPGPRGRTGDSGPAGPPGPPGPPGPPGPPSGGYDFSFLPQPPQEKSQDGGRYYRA
T1 sequence (P02466 86-1125 limits assumed): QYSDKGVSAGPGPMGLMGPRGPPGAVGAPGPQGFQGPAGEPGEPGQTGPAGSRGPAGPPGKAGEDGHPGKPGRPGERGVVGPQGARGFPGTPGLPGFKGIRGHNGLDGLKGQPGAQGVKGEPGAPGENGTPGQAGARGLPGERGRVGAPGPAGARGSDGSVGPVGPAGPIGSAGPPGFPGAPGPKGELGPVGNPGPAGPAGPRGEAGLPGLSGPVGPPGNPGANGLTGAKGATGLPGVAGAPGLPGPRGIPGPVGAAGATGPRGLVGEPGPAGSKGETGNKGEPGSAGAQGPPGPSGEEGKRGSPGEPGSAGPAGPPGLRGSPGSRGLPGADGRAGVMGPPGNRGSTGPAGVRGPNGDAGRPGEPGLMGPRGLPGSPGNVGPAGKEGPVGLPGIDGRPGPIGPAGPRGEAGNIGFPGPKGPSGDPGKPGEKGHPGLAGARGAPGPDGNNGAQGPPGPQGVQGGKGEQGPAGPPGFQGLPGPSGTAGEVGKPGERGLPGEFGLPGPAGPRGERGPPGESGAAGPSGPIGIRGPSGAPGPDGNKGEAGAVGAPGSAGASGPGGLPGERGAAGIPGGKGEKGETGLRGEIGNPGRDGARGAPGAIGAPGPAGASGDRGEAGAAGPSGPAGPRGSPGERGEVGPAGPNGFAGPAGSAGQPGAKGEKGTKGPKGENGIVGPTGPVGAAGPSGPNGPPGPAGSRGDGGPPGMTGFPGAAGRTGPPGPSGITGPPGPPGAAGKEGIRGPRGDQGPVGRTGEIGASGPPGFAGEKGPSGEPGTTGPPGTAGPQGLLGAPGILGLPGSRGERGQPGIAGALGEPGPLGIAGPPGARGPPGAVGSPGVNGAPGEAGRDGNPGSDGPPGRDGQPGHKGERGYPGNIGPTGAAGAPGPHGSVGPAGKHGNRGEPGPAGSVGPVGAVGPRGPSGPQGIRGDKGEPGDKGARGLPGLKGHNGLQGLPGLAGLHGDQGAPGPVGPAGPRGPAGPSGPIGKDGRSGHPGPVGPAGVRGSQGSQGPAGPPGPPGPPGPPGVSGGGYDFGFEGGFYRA
The experiment in a line: Photo-ablation of artificial floaters with nanosecond laser. On the procedure: Collagen fibers were prepared from type I collagen from the rat tail (GIBCO; concentration of 3 mg/ml) as described in Sauvage et al., 2019, ACS Nano, 13, 8401-8416. 5 ml of PBS was pipetted in a 15 ml falcon tube. 330 μL of the PBS solution was replaced by 330 μL collagen type I and the solution was vortexed. Sodium hydroxide (0.1 M) (VWR, Radnor, USA) was added to the acid solution of collagen to adjust pH to 7.4. The solution was vortexed again and placed for one hour in the incubator at 37° C. The final concentration of the collagen was 0.2 mg/ml.
First, dark-field microscopy imaging was performed to locate and align the nanosecond laser (Opolette HE 355 LD, OPOTEK Inc., CA, USA) on the artificial collagen fibers in the sample. Samples of either artificial or human opacities treated with TB, ICG and ICG nanoparticles were then illuminated with the laser (<7 ns). The wavelength of the laser light was 561 nm and the energy was set at ±800 μJ. A beam expander (#GBE05-A, Thorlabs) combined with iris diaphragm (#D37SZ, Thorlabs) were used to adjust the diameter of the laser beam to 150 μm (so that 800 μJ corresponded to a laser fluence of 4.5 J/cm^2). The laser pulse energy was monitored by an energy meter (J-25 MB-HE&LE, Energy Max-USB/RS sensors, Coherent) synchronized with the pulsed-laser. The set-up was made in such way to illuminate the sample shot by shot. Videos of the sample were made during illumination with NIS software. Same experiments were performed with human opacities Comparison Between Free ICG, PAH-ICG NPs and HSA-ICG NPs in Water and Bovine Vitreous.

The target in another series is T2, collagen fibers (Rattus norvegicus, UniProt P02454+P02466).
T2 construct: host or cells: exogenous fibres injected into the vitreous of New Zealand White rabbits
T2 sequence (P02454 152-1207 limits assumed): as the sequence (P02454 152-1207 limits assumed) above
T2 sequence (P02466 86-1125 limits assumed): as the sequence (P02466 86-1125 limits assumed) above
Briefly: In vivo laser photo-ablation of intravitreally injected collagen fibers. The arrangement: species or system rabbit.
From the text: as §1
First, to visualize the retina of the rabbit eyes, a plastic contact lens was placed on the cornea. When the target location in the vitreous was selected under the microscope, the rabbits under anaesthesia were subsequently intravitreally injected. The intravitreal injections were performed using a 27 gauge needle. […] The position of the fibers was monitored by OCT so that the intravitreal injection of ICG could be performed close the area where the fibers were located. […]
Before laser treatment, the rabbit's eyes were imaged by PAM and OCT (see section above). […] Also, rabbit's vital signs were monitored and recorded until the animals fully recovered from anaesthesia.

For `CC1(C)C(/C=C/C=C/C=C/C=C2\N(CCCCS(=O)(=O)O)c3ccc4ccccc4c3C2(C)C)=[N+](CCCCS(=O)(=O)[O-])c2ccc3ccccc3c21` [ICG, Indocyanine Green], the results for the “visibility of ICG 7 days after injection” value in series [1] (0.25 mg/ml IVIT), in series [1] (0.625 mg/ml IVIT) and in series [1] (1.25 mg/ml IVIT) were “no longer visible at the level of the collagen fibers”, “remained only visible at the level of the collagen fibers” and “remained only visible at the level of the collagen fibers”, respectively. Also, the “visibility of 'free' ICG (not bound to collagen) in vitreous cavity” value in series [1] (3 days post injection, all concentrations) was “no longer visible in the vitreous cavity”. The “visibility of injected ICG in vitreous” value in series [1] (after one day, 0.25, 0.625 and 1.25 mg/ml IVIT) is reported as “most of the injected ICG was no longer visible”. The “destruction of human vitreous opacity” value in the series with human vitreous opacities (561 nm, 4.5 J/cm^2) is on record as “the vitreous opacity could be destroyed”; in the series on human vitreous opacities (800 nm, 1.1 J/cm^2), “the vitreous opacity could be destroyed”. Besides, at type I collagen fibers (0.5 mg/ml), the “binding and destruction of type I collagen fibers” value was “can bind and efficiently destroy type I collagen fibers”. The “location of VNBs during laser pulse on fiber” value on type I collagen fibers (nanosecond laser 4.5 J/cm^2) is “VNBs could be observed at the level of the fiber”. Also, the “destruction of collagen fibers in vivo” value at collagen fibers (IVIT 0.625 mg/mL, 800 nm, 1.9 J/cm^2) is reported as “complete destruction of the collagen fibers”. The “laser pulses (scans) sufficient to completely destroy injected collagen fibers” value at collagen fibers (IVIT 1.25 mg/mL, 800 nm, 1.9 J/cm^2, 3 days after ICG) is on record as 5 laser pulses. For the same molecule, the “pulses sufficient to destroy the IVIT injected fibers” value on collagen fibers (all rabbits tested (n=3)) was 3.3+/−1.5 pulses.

For the origin of these results see US20230256095A1, “DYES FOR USE IN A METHOD OF TREATMENT OF VITREOUS OPACITY-RELATED DISEASES” (UNIVERSITEIT GENT, priority 2020, published 2023).
